According to US7045532B2 (Millennium Pharmaceuticals, Inc., priority 1999, dated 2006):
Read-outs that look alike come from different tables or passages of the source.

Molecular target: T1, ACE-2 (Homo sapiens, UniProt Q9BYF1)
T1 construct: a stop codon inserted after the serine immediately preceding the transmembrane domain; made in house; host or cells: CHO K1 cells (transient transfection, purified from conditioned medium)
Assay: ACE-2 Competitive Substrate Assay (ACS Assay)
Assay type: biochemical

[1] = Ki class, compounds tested in 5% DMSO, 12 compound concentrations, Ki=Kiapp/(1+[S]/Km), read-out: Human ACE-2 Activity
[2] = Table 3, very good ACE-2 inhibiting compounds, species not given, read-out: ACE-2 Activity, Ki
[3] = Ki class per key, compounds tested in 5% DMSO, 12 compound concentrations, 25° C., Ki=Kiapp/(1+[S]/Km), read-out: Human ACE-2 Activity
[4] = Ki class, compounds tested in 5% DMSO, 12 concentrations, read-out: Human ACE-2 Activity

T1 sequence (Q9BYF1 18-740 limits assumed): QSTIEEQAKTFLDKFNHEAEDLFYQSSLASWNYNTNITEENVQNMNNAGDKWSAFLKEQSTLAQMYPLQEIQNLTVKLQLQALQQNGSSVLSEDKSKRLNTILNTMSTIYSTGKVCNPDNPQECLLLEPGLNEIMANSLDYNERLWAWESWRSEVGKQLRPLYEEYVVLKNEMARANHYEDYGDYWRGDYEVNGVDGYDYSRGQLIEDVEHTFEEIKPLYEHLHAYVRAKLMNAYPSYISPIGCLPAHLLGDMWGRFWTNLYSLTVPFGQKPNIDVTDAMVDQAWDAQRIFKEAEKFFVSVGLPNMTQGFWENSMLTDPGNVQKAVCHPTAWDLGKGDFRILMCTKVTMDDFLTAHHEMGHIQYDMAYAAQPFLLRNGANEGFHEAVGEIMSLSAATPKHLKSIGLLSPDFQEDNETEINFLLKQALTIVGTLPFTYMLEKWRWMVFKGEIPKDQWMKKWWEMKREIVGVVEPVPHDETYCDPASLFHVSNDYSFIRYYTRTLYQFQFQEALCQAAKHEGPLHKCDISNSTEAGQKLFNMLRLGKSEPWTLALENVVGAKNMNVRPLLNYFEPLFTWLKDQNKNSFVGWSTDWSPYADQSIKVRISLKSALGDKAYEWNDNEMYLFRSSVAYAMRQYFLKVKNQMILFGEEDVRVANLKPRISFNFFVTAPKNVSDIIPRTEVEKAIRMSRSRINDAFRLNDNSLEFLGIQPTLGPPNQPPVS

Structure (SMILES) | Ki [1] | Ki [2] | further results
CC(C)C[C@H](N[C@@H](Cc1ccccc1OCc1cccc(Cl)c1)C(=O)O)C(=O)O [QO, 2-[1-Carboxy-2-[2-(3-chloro-benzyloxy)-phenyl]-ethylamino]-4-methyl-pentanoic acid] | – | – | Ki [3]: > 500 nM
CC(C)C[C@H](N[C@@H](Cc1cccc(OCc2csc3ccc(Cl)cc23)c1)C(=O)O)C(=O)O [PH, S,S-2-{1-Carboxy-2-[3-(5-chloro-benzo[b]thiophen-3-ylmethoxy)-phenyl]-ethylamino}-4-methyl-pentanoic acid] | – | < 50 nM | Ki [3]: < 100 nM
Cc1nc(C[C@H](NC(CC(C)C)C(=O)O)C(=O)O)c(Cc2ccccc2)s1 (single isomer, unassigned) [KC, 2-[2-(5-Benzyl-2-methyl-thiazol-4-yl)-1-carboxy-ethylamino]-4-methyl-pentanoic acid] | > 500 nM | – | –
CC(C)C[C@H](N[C@@H](CCNS(=O)(=O)c1ccc(-c2ccc(Cl)cc2)cc1)C(=O)O)C(=O)O [KN, (S,S)-2-[1-Carboxy-3-(4′-chloro-biphenyl-4-sulfonylamino)-propylamino]-4-methyl-pentanoic acid] | > 500 nM | – | –
CC(C)C[C@H](N[C@@H](Cc1ccc(-c2ccc(C(F)(F)F)cc2)o1)C(=O)O)C(=O)O [OM, (S,S)-2-{1-Carboxy-2-[5-(4-trifluoromethyl-phenyl)-furan-2-yl]-ethylamino}-4-methyl-pentanoic acid] | > 500 nM | – | –
CC(C)C[C@H](N[C@@H](Cc1ccc(-c2ccc3c(c2)OCO3)cc1)C(=O)O)C(=O)O [OZ, 2-[2-(4-Benzo[1,3]dioxol-5-yl-phenyl)-1-carboxy-ethylamino]-4-methyl-pentanoic acid] | – | 50 to 100 nM | Ki [3]: < 100 nM
CC(C)CC(N[C@@H](Cc1cncn1CCC1CCCCC1)C(=O)O)C(=O)O (single isomer, unassigned) [JJ, 2-[1-Carboxy-2-[3-(2-cyclohexyl-ethyl)-3H-imidazol-4-yl]-ethylamino]4-methyl-pentanoic acid] | > 500 nM | – | –
Cc1ccc(-c2cccc(C[C@H](N[C@@H](CC(C)C)C(=O)O)C(=O)O)c2)cc1 [LY, (S,S)-2-[1-Carboxy-2-(4′-methyl-biphenyl-3-yl)-ethylamino]-4-methyl-pentanoic acid] | > 500 nM | – | –
CC(C)CC(N[C@@H](CN(Cc1ccccc1)c1ccccc1)C(=O)O)C(=O)O (stereo partly drawn) [GT, 2-[2-(Benzyl-phenyl-amino)-1-carboxy-ethylamino]-4-methyl-pentanoic acid] | – | – | Ki [4]: > 500 nM
CC(C)C[C@H](N[C@@H](Cc1ccc(NS(=O)(=O)c2ccccc2)cc1)C(=O)O)C(=O)O [PE, (S,S) 2-[2-(4-Benzenesulfonylamino-phenyl)-1-carboxy-ethylamino]-4-methyl-pentanoic acid] | – | – | Ki [3]: > 500 nM
Cc1ccc(-n2ccc(C[C@H](N[C@@H](CC(C)C)C(=O)O)C(=O)O)n2)cc1 [QQ, 2-[1-Carboxy-2-(1-p-tolyl-1H-pyrazol-3-yl)-ethylamino]-4-methyl-pentanoic acid] | – | 50 to 100 nM | Ki [3]: < 100 nM
Cc1cc(C)cc(COc2cccc(C[C@H](N[C@@H](CC(C)C)C(=O)O)C(=O)O)c2)c1 [OA, 2-[1-Carboxy-2-[3-(3,5-dimethyl-benzyloxy)-phenyl]-ethylamino]-4-methyl-pentanoic acid] | > 500 nM | – | –
CC(C)C[C@H](N[C@@H](Cc1ccc(-n2cccc2)cc1)C(=O)O)C(=O)O [PO, 2-[1-Carboxy-2-(4-pyrrol-1-yl-phenyl)-ethylamino]-4-methyl-pentanoic acid] | – | < 50 nM | Ki [3]: > 500 nM
CC(N[C@@H](Cc1ccccc1)C(=O)O)C(=O)O (stereo partly drawn) [O, 2-(1-Carboxy-ethylamino)-3-phenyl-propionic acid] | – | – | Ki [4]: > 500 nM
COc1cccc(C(=O)NCC[C@H](N[C@@H](CC(C)C)C(=O)O)C(=O)O)c1 [KO, 2-[1-Carboxy-3-(3-methoxy-benzoylamino)-propylamino]-4-methyl-pentanoic acid] | > 500 nM | – | –

Now from value to compound, other results behind:

Ki [1] | Ki [2] | Structure (SMILES) | further results
< 100 nM | 50 to 100 nM | CC(C)C[C@H](N[C@@H](Cc1coc(-c2cc(Cl)cc(Cl)c2)n1)C(=O)O)C(=O)O [LN, (S,S)-2-{1-Carboxy-2-[2-(3,5-dichlorophenyl)-oxazol-4-yl]ethylamino}-4-methyl-pentanoic acid] | –
> 500 nM | – | CC(C)CC(NC(Cc1cccc(OCc2ccc(C(F)(F)F)cc2C(F)(F)F)c1)C(=O)O)C(=O)O (stereo not drawn) [OC, 2-{2-[3-(2,4-Bis-trifluoromethyl-benzyloxy)-phenyl]-1-carboxy-ethylamino}-4-methyl-pentanoic acid] | –
> 500 nM | – | CC(C)C[C@H](N[C@@H](Cc1cncn1Cc1cc(Cl)cc(Cl)c1)C(=O)OCc1ccccc1)C(=O)O [LB, (S,S) 2-{1-Benzyloxycarbonyl-2-[3-(3,5-dichloro-benzyl)-3H-imidazol-4-yl]-ethylamino}-4-methyl-pentanoic acid] | –
> 500 nM | – | CC(C)C[C@H](N[C@@H](Cc1ccc(-c2cccc(Cl)c2)o1)C(=O)O)C(=O)O [OS, (S), (S)-2-{1-Carboxy-2-[5-(3-chloro-phenyl)-furan-2-yl]-ethylamino}-4-methyl-pentanoic acid] | –
> 500 nM | – | CC(C)CC(N[C@@H](Cc1cncn1Cc1c(Cl)cccc1Cl)C(=O)O)C(=O)O (single isomer, unassigned) [JD, 2-[1-Carboxy-2-[3-(2,6-dichloro-benzyl)-3H-imidazol-4-yl]-ethylamino]4-methyl-pentanoic acid] | –
> 500 nM | – | CC(C)CC(N[C@@H](Cc1cncn1CCc1ccccc1)C(=O)O)C(=O)O (single isomer, unassigned) [JL, 2-[1-Carboxy-2-[3-phenethyl-3H-imidazol-4-yl)-ethylamino]-4-methyl-pentanoic acid] | –
100 to 500 nM | – | CC(C)C[C@H](N[C@@H](Cc1ccn(-c2ccccc2)n1)C(=O)O)C(=O)O [OD, 2-[1-carboxy-2-(1phenyl-1H-pyrazol-3-yl)-ethylamino]-4-methyl-pentanoic acid] | –
100 to 500 nM | – | C=CCOc1cccc(C[C@H](N[C@@H](CC(C)C)C(=O)O)C(=O)O)c1 [NB, S,S-2-[2-(3-Allyloxy-phenyl)-1-carboxy-ethylamino]-4-methyl pentanoic acid] | –
< 100 nM | 50 to 100 nM | CC(C)C[C@H](N[C@@H](Cn1ccn(Cc2ccc(Cl)c(Cl)c2)c1=O)C(=O)O)C(=O)O [KU, (S,S) 2-{1-Carboxy-2-[3-(3,4-dichloro-benzyl)-2-oxo-2,3-dihydro-imidazol-1-yl]ethylamino}-4-methyl-pentanoic acid] | –
< 100 nM | – | CC(C)CC(N[C@@H](Cc1cncn1Cc1cccc(Cl)c1Cl)C(=O)O)C(=O)O (single isomer, unassigned) [IY, 2-[1-Carboxy-2-[3-(2.3-dichloro-benzyl)-3H-imidazol-4-yl]-ethylamino]4-methyl-pentanoic acid] | –
< 100 nM | < 50 nM | CC(C)C[C@H](N[C@@H](Cc1cncn1Cc1cc(F)cc(F)c1)C(=O)O)C(=O)O [NJ, (S,S) 2-{1-Carboxy-2-[3-(3,5-difluoro-benzyl)-3H-imidazol-4-yl]-ethylamino}-4-methyl-pentanoic acid] | –
< 100 nM | 50 to 100 nM | CC(C)C[C@H](N[C@@H](CC1COC(=O)N1Cc1cc(Cl)cc(Cl)c1)C(=O)O)C(=O)O (stereo in doubt) [NE, (S,S,S)-2-{1-Carboxy-2-[3-(3,5-dichloro-benzyl)-2-oxo-oxazolidin-4-yl]-ethylamino}-4-methyl-pentanoic acid] | –
100 to 500 nM | – | CC(C)C[C@H](N[C@@H](Cn1ccn(CC2CCCCC2)c1=O)C(=O)O)C(=O)O [NL, 2-[1-Carboxy-2-(3-cyclohexylmethyl-2-oxo-2,3-dihydro-imidazol-1-yl)-ethylamino]-4-methyl-pentanoic acid] | –
< 100 nM | 50 to 100 nM | CC(C)C[C@H](N[C@@H](Cc1cccc(OCc2cc(Cl)cc(Cl)c2)c1)C(=O)O)C(=O)O [NY, 2-[1-Carboxy-2-[3-(3,5-dichloro-benzyloxy)-phenyl]-ethylamino]-4-methyl-pentanoic acid] | –
< 100 nM | 50 to 100 nM | CC(C)C[C@H](N[C@@H](Cc1ccc(Cc2ccccc2)cc1)C(=O)O)C(=O)O [OG, (S,S)-2-[2-(4-Benzyl-phenyl)-1-carboxy-ethylamino]-4-methyl-pentanoic acid] | –
< 100 nM | < 50 nM | CC(C)C[C@H](N[C@@H](Cc1ccn(Cc2cc(Cl)cc(Cl)c2)n1)C(=O)O)C(=O)O [LP, (S,S)-2-{1-carboxy-2-[1-(3,5-dichlorobenzyl)-1H-pyrazol-3-yl]-ethylamino}-4-methyl pentanoic acid] | –
100 to 500 nM | – | Cc1ccccc1Cn1cncc1C[C@H](NC(CC(C)C)C(=O)O)C(=O)O (single isomer, unassigned) [HW, 2-[1-Carboxy-2-[3-(2-methyl-benzyl)-3H-imidazol-4-yl]-ethylamino]4-methyl-pentanoic acid] | –
100 to 500 nM | – | Cc1ccc(Cn2cncc2C[C@H](NC(CC(C)C)C(=O)O)C(=O)O)cc1 (single isomer, unassigned) [HH, 2-[1-Carboxy-2-[3-(4-methyl-benzyl)-3H-imidazol-4-yl]-ethylamino)4-methyl-pentanoic acid] | –
< 100 nM | < 50 nM | CC(C)C[C@H](N[C@@H](CC(=O)Nc1nc2ccccc2s1)C(=O)O)C(=O)O [KV, 2-[2-(Benzothiazol-2-ylcarbamoyl)-1-carboxy-ethylamino]-4-methyl-pentanoic acid] | –
100 to 500 nM | – | CC(C)C[C@H](N[C@@H](Cn1ccn(C2CCCCC2)c1=O)C(=O)O)C(=O)O [MN, 2-[1-Carboxy-2-(3-cyclohexyl-2-oxo-2,3-dihydro-imidazol-1-yl)-ethylamino]-4-methyl-pentanoic acid] | –
100 to 500 nM | – | CC(C)C[C@H](N[C@@H](CC(=O)Nc1nc2cc(Cl)c(Cl)cc2s1)C(=O)O)C(=O)O [MG, (S,S)-2-[1-Carboxy-2-(5,6-dichloro-benzothiazol-2-ylcarbamoyl)-ethylamino]-4-methyl-pentanoic acid] | –
